# Results taken from patent US4066678A (priority 1975, dated 1978).
# Experiments:
# [1] = Hygroscopic property; type: physicochemical
# [2] = test system: golden hamster
# [3] = Clinical use: epilepsy; type: in vivo, patients
# Procedure: A large amount therapy, 100-500mg/body/day in a dosis, is performed. […] In these points, the patients are humanly matured.
# [4] = Clinical use: allergic diseases; type: in vivo, patients
# [5] = Clinical use: improvement of peripheral circulation; type: in vivo, patient
# From the text: This is observed by plethysmography.
# [6] = Effect of NaOGe on essential hypertension in human being; type: in vivo; settings: in words
# Procedure: Dr. A. Ishikawa, of our research group, has investigated the effect of NaOGe on essential hypertension in human being. The adminstration of 40-150 mg/body of NaOGe was divided orally in two or three doses. The duration of drug administration was at the least 1 month, at the most 12 months. The following results are obtained:
# (§1) *Numbers showing good response / total numbers
# [7] = Clinical use: hepatoma; settings: in vivo
# [8] = test system: AH44; test: Effect on ascites hepatoma AH44 in rats; type: in vivo, Doryu rats; settings: 100mg/kg/day for 10 days, all control rats died
# Procedure: (§2) Dr. H. Sato, of our research group, investigated the antitumor effect of NaOGe by using several strains of ascites hepatoma in rats. For this investigation, the following […] strains of hepatoma were used: AH13, AH130, AH272, AH44, AH66F, AH7974, AH41C, AH60C and AH109A. 10^7 cells of each strain tumor were inoculated intravenously into the Doryu rats, 72 hours later, 100mg/kg/day of OGe was administered for 10 days.
# [9] = test system: Rats (Wistar strain); test: Acute toxicity of NaOGe in rats; type: in vivo; settings: per os, female
# From the text: (§3) Acute Toxicities of NaOGe according to the […]
# [10] = Acute toxicity of NaOGe in rats; type: in vivo, Rats (Wistar strain); settings: rat, in vivo, po; per os, male
# From the text: as §3
# [11] = Clinical use: therapy of dysfunction liver (hepatitis); type: in vivo, patients
# Procedure: In patients receiving 100mg/body/day of the drug, the improvement of alkali phosphatase, SGOT, SGPT, ASAC and α-GPT and abnormal fraction of serum-protein was observed.
# [12] = Clinical use: kidney function; settings: in vivo
# [13] = Clinical use: effect in obstetrics; type: in vivo, patients
# From the text: The drug is particularly-effective on various symptoms including morning sickness caused by pregnance.
# [14] = Clinical use: general fatigue, malaise and asthenia; type: in vivo
# [15] = Effect of NaOGe on development of amyloidosis in mice; type: in vivo, ICR strain mice; settings: in words
# Procedure: From the above results, it was presumed that OGe might act not only hypertension but some of metabolic changes related to aging. Thus, the influence of NaOGe on the development of amyloidosis in mice was tested. The ICR strain mice had been treated with oral administration of NaOGe for 22 months. After that, all mice were sacrificed and the development of amyloidosis in several important organs was investigated.
# [16] = Clinical use: liver cirrhose; type: in vivo, patients; settings: 100-200mg/body/day
# [17] = test system: infants; test: Clinical use: infants; type: in vivo
# [18] = Effect of NaOGe on Diabetes Mellitus in human being; type: in vivo; settings: in words
# Procedure: The duration of drug administration was at the least 1 month, at the most 12 months. The following results are obtained:
# as §1
# Dr. A. Ishikawa of our research group has investigated the effect of NaOGe on Diabetes Millitus in human being. The administration of 40-150 mg/kg body of NaOGe was divided orally in two or three doses.
# [19] = test system: ascites hepatoma; test: Direct cytocidal action of NaOGe; design: species or system rats; settings: in words
# [20] = test system: Mice (ICR strain); test: Acute toxicity of NaOGe in mice; type: in vivo; settings: per os, female
# From the text: as §3
# [21] = Acute toxicity of NaOGe in mice; type: in vivo, Mice (ICR strain); settings: mouse, in vivo, po; per os, male
# From the text: as §3
# [22] = Clinical use: acceleration of heart function; type: in vivo, patients
# [23] = Clinical use: loss of autonomic nervous system function; type: in vivo, patients
# [24] = Clinical use: schizophrenia; type: in vivo, patients; settings: 200-300mg/body/day oral
# Procedure: The oral administration of 200mg/body/day ~ 300mg/body/day is necessary.
# [25] = test system: AH66; test: Effect on ascites hepatoma AH66 in rats; type: in vivo, Doryu rats; settings: 100mg/kg/day for 10 days, all control rats died
# Procedure: as §2
# [26] = Clinical use: depression; type: in vivo, patients; settings: about 100mg/body/day oral
# From the text: In moderate depression, about at the 8th day after drug administration, the improvement is observed.
# [27] = Clinical use: peripheral neuritis; type: in vivo, patients; settings: 100mg/body/day
# [28] = Clinical use: protective effect of drug administration for long periods; type: in vivo; settings: 50mg/body/day administered with the others, long-term
# [29] = Clinical use: migrain; type: in vivo
# [30] = Clinical use: digestive system; type: in vivo
# From the text: The effect is found clearly by X-ray examination.
# [31] = test system: Spontaneously Hypertensive Rats; test: Effect of NaOGe on blood pressure of spontaneously hypertensive rats; type: in vivo, rats (SHR strain); settings: in words
# Procedure: To investigate the effect of NaOGe on hypertension, 100mg/kg/day of sodium salt of OGe had been administered to spontaneously hypertensive rats (SHR strain) and estimated the change of blood pressure.
# [32] = cadmium chloride 2.0 mg/kg iv alone, 8th day of gestation
# [33] = 75mg/body/day, asthma bronchitis and chronic exanthema
smiles,measurement,setting,value
O=C([O-])C[CH2][Ge]([OH])([OH])[OH].[NH4+] [Ammonium 3-trihydroxygermylpropionate],hygroscopic property,[1],hydroscopic
[Cl][Cd][Cl] [Cadmium chloride],teratogenic action,"[2]; 2.0mg/kg intravenously, 8th day of gestation, in words","produces cleft palate, exencepalia, harelips and open-eye lid"
same,Living fetuses,[2]; [32],4.9%
same,Malformation,[2]; [32],25.5%
same,Resorbed embryos,[2]; [32],51.0%
"O=C([O-])C[CH2][Ge]([OH])([OH])[OH].[Na+] [NaOGe, Sodium 3-trihydroxygermylpropionate]",EEG: epilepsy specific spike,[3]; 100-500mg/body/day oral,the loss of epilepsy specific spike is found
same,EEG: slow burst,[3]; 100-500mg/body/day oral,the inhibition of slow burst is not observed
same,drowsiness,[3]; 100-500mg/body/day oral,complete lack of drowsiness
same,grade of convulsion,[3]; 100-500mg/body/day oral,becomes lighter
same,interval of convulsion appearance,[3]; 100-500mg/body/day oral,becomes gradually longer
same,learning and working ability,[3]; 100-500mg/body/day oral,the improvement of learning -- and working -- ability is observed
same,absence of symptoms,"[3]; continued oral administration, 100-500mg/body/day",many patients did not show any symptom
same,condition 6 months to 1 year after drug administration,"[4]; 75mg/body/day, 6 months to 1 year",many patients show a condition looking like a complete cure
same,frequency of symptom-appearance,[4]; [33],decrease of the frequency of symptom-appearance
same,interval of symptom appearance,[4]; [33],becomes longer
same,use of adrenal cartex hormone,[4]; [33],decrease of adrenal cartex hormone or stop of the hormone
same,drug allergic reaction,"[4]; patients with drug allergy, given with an allergenic drug",any drug allergic reaction is not observed
same,cold exanthema,"[5]; human, in vivo",protects the appearance of cold exanthema
same,peripheral circulating blood amount,"[5]; single administration of 50 mg/body/day, plethysmography",increase of peripheral circulating blood amount
same,effect in treatment and prevention of essential hypertension,[6],effective in the treatment and the prevention of essential hypertension
same,life span,[7],increase of life span
same,treated rats showing a complete cure,[8],half
same,LD50,[9],over 10 g/kg
same,LD50,[10],> 10000 mg/kg
same,"alkali phosphatase, SGOT, SGPT, ASAC and α-GPT and abnormal fraction of serum-protein",[11]; 100mg/body/day,improvement
same,spontaneous cure of acute and chronic hepatitis,"[11]; human, in vivo",acceleration of the spontaneous cure
same,appearance of proteiureia,[12],the appearance of proteiureia is inhibited
same,diuretic effect,[12],diuretic effect is observed
same,effect in serious patients indicated for artificial pregnance stopping,[13]; 100-200mg/body/day,effective one some serious patients
same,symptoms including morning sickness,"[13]; human, in vivo",particularly-effective
same,"symptoms of general fatigue, malaise and asthenia",[14]; 75mg/body/day,"loss of the symptoms of general fatigue, malaise and asthenia"
same,symptoms due to neurosis,[14]; increase of dose to 75mg/body/day,early the disappearance of the symptoms due to neurosis
same,development of amyloidosis,[15]; 30mg/kg/day,a clear prevention of the development was observed
same,development of amyloidosis,[15]; 300mg/kg/day,completely inhibited the development of amyloidosis
same,Malformation produced by cadmium chloride,"[2]; NaOGe 40.0mg/kg, simultaneous intravenous injection, in words",prevented completely
same,ascites,[16],beginning of the loss of ascites
same,liver function,[16],acceleration of the recovery of liver function
same,progress of liver dysfunction,[16],stopped the progress of liver dysfunction
same,actonic vomiting and autointoxication,[17]; 20 - 50 mg/body/day,effective on actonic vomiting and autointoxication of infants
same,body weight,"[17]; 100-200mg/body/day, infants showing decrease of body weight",increase
same,effect on Diabetes Mellitus,[18],effective on Diabetes Mellitus
same,direct cytocidal action,[19],does not possess direct cytocidal action
same,LD50,[20],over 10 g/kg
same,LD50,[21],> 10000 mg/kg
same,blood-stream,[22]; 75-150mg/body/day,increase of blood-stream
same,ECG pattern,"[22]; 75-150mg/body/day, patients with blood-loss ECG symptom",improvement of ECG pattern
same,effect on blood-vessels,[22]; from the effect on the eye ground symptoms,stabilizing effect of blood-vessels
same,subcutaneous bleeding of legs and hands,[22]; old people,inhibited
same,effect in patients resistant to other drugs,[23]; 75mg/body/day oral,shows the effect on many patients showing resistance against any other drugs
same,objective and functional abnormality of various organs controlled by autonomic nervous system,[23]; after drug administration,are not found after drug administration
same,hullucination,[24],the disappearance of hullucination is accelerated
same,self-recognization of the disease,[24],clearly found rather early after drug administration
same,working ability,[24],The working ability is observed
same,treated rats showing a complete cure,[25],half
same,depressive status,[26],improvement of depressive status
same,drowsiness,[26],does not give any drowsiness
same,initiation of autonomy,[26],clearly observed after drug administration
same,effect on peripheral neuritis,[27],become to enjoy normal daily life without serious pain
same,hygroscopic property,[1],hydroscopic
same,side effects of tranquilizers and anti-tuberculosis drugs,[28],decrease of side effects
same,effect on migraine,[29]; 75mg/body/day,effective on migraine
same,symptoms caused by brain-anemia,[29]; in vivo,shows the effect on the symptoms caused by brain-anemia
same,subjective symptoms and ulcers,[30]; X-ray examination,loss of subjective symptoms and the cure of ulcers
same,effect on constipation,[30]; in vivo,effective on constipation
same,movement of stomach and intestine,[30]; in vivo,modification of movement of stomach and intestine
same,effect compared with other therapy,[30]; ulcers,higher than any other therapy
"O=C(O)C[CH2][Ge]([OH])([OH])[OH] [OGe, 3-trihydroxygermylpropionic acid]",effect on hypertension in rats,[31],highly effective on hypertension in rats and the effect appears gradually
